Experimental data as given in patent US9919053B2, “Cabazitaxel composition” (SUPRATEK PHARMA INC., priority 2012, dated 2018).
Values after ≈ are worked out from the molar mass of the structure shown. Like-named read-outs stand apart in the source and are kept apart here.

Key:
[1] = Stability of solution of cabazitaxel in aqueous SBECD (HPLC concentration over time); assay type: physicochemical; conditions: 23° C.
Experimental: A solution containing 2.02 mg/mL cabazitaxel in 20% aqueous SBECD was prepared by sequential dissolving SBECD in water, and cabazitaxel in the resulting solution, followed by filtration through a 0.22 μm filter. Portions of the solution was subsequently diluted with water to form three solutions having the cabazitaxel concentration listed in the Table below, respectively. The solutions were incubated at temperature 23° C. and at selected time points were analyzed using the HPLC. All solutions were stable.

[2] = Equilibrium solubility of cabazitaxel in aqueous SBECD; assay type: physicochemical; conditions: aqueous SBECD solution, 23 °C, aqueous with cosolvent or surfactant or cyclodextrin, thermodynamic from solid, read-out: Cabazitaxel concentration (equilibrium solubility)
Experimental: Excess of cabazitael was mixed with aqueous SBECD solutions for 16 hours at 23° C. The resulting suspension was filtered through a 0.22 μm filter, and the clear filtrate solution was analyzed by HPLC.

## CO[C@H]1C(=O)[C@]2(C)[C@@H](OC)C[C@H]3OC[C@@]3(OC(C)=O)[C@H]2[C@H](OC(=O)c2ccccc2)[C@]2(O)C[C@H](OC(=O)[C@H](O)[C@@H](NC(=O)OC(C)(C)C)c3ccccc3)C(C)=C1C2(C)C [cabazitaxel, (1S,2S,3R,4S,7R,9S,10S,12R,15S)-4-(Acetyloxy)-15-{[(2R,3S)-3-{[(tert-butoxy)carbonyl]amino}-2-hydroxy-3-phenylpropanoyl]oxy}-1-hydroxy-9,12-dimethoxy-10,14,17,17-tetramethyl-11-oxo-6-oxatetracyclo[11.3.1.^03,10.0^4,7]heptadec-13-ene-2-yl benzoate]
[1]; first dilution (0.098 mg/mL at 0 h) of 2.02 mg/mL in 20% SBECD, time 0 hours
  Cabazitaxel concentration: 0.098 mg/mL
[1]; first dilution (0.098 mg/mL at 0 h), time 11 hours
  Cabazitaxel concentration: 0.099 mg/mL
[1]; first dilution (0.098 mg/mL at 0 h), time 24.5 hours
  Cabazitaxel concentration: 0.099 mg/mL
[1]; first dilution (0.098 mg/mL at 0 h), time 36 hours
  Cabazitaxel concentration: 0.098 mg/mL
[1]; first dilution (0.098 mg/mL at 0 h), time 45 hours
  Cabazitaxel concentration: 0.098 mg/mL
[1]; first dilution (0.098 mg/mL at 0 h), time 100 hours
  Cabazitaxel concentration: 0.097 mg/mL
[1]; first dilution (0.098 mg/mL at 0 h), time 120 hours
  Cabazitaxel concentration: 0.097 mg/mL
[1]; second dilution (0.268 mg/mL at 0 h) of 2.02 mg/mL in 20% SBECD, time 0 hours
  Cabazitaxel concentration: 0.268 mg/mL
[1]; second dilution (0.268 mg/mL at 0 h), time 11 hours
  Cabazitaxel concentration: 0.268 mg/mL
[1]; second dilution (0.268 mg/mL at 0 h), time 24.5 hours
  Cabazitaxel concentration: 0.269 mg/mL
[1]; second dilution (0.268 mg/mL at 0 h), time 36 hours
  Cabazitaxel concentration: 0.268 mg/mL
[1]; second dilution (0.268 mg/mL at 0 h), time 45 hours
  Cabazitaxel concentration: 0.268 mg/mL
[1]; second dilution (0.268 mg/mL at 0 h), time 100 hours
  Cabazitaxel concentration: 0.263 mg/mL
[1]; second dilution (0.268 mg/mL at 0 h), time 120 hours
  Cabazitaxel concentration: 0.266 mg/mL
[1]; third dilution (0.510 mg/mL at 0 h) of 2.02 mg/mL in 20% SBECD, time 0 hours
  Cabazitaxel concentration: 0.510 mg/mL
[1]; third dilution (0.510 mg/mL at 0 h), time 11 hours
  Cabazitaxel concentration: 0.515 mg/mL
[1]; third dilution (0.510 mg/mL at 0 h), time 24.5 hours
  Cabazitaxel concentration: 0.518 mg/mL
[1]; third dilution (0.510 mg/mL at 0 h), time 36 hours
  Cabazitaxel concentration: 0.512 mg/mL
[1]; third dilution (0.510 mg/mL at 0 h), time 45 hours
  Cabazitaxel concentration: 0.517 mg/mL
[1]; third dilution (0.510 mg/mL at 0 h), time 100 hours
  Cabazitaxel concentration: 0.512 mg/mL
[1]; third dilution (0.510 mg/mL at 0 h), time 120 hours
  Cabazitaxel concentration: 0.518 mg/mL
[2]; aqueous SBECD 1%
  solubility thermodynamic at 16 h: 270 µg/mL (≈ 323 µM)
[2]; aqueous SBECD 2%
  solubility thermodynamic at 16 h: 460 µg/mL (≈ 550 µM)
[2]; aqueous SBECD 10%
  solubility thermodynamic at 16 h: 990 µg/mL (≈ 1180 µM)
[2]; aqueous SBECD 20%
  solubility thermodynamic at 16 h: 2280 µg/mL (≈ 2730 µM)
[2]; aqueous SBECD 40%
  solubility thermodynamic at 16 h: 4170 µg/mL (≈ 4990 µM)
